Here are results for 9 compounds from patent US4352817A, “Imidazo-diazepines and their use” (priority 1982, dated 1982).

The subject of data set [1] is Schistosoma mansoni. Put plainly: In vitro schistosomicidal activity (motility of worm pairs). The class given is cell-based. Further details: key to Activity: worm pairs motionless within 15 minutes; b: worm pairs show normal motility during the test period of 120 hours. As to conditions: for Activity: 37° C., 120 hours. Here is the method: In order to test the in vitro activity of preparations, worm pairs of Schistosoma mansoni are isolated from mice and incubated at 37° C. in a nutrient medium. Preparations are added in the form of a solution or as a suspension. The motility of the worms is observed under a microscope and registered during the test period of 120 hours. A schistosomicidal activity of a preparation manifests itself in the more or less rapid loss of motility of the worms. Control worms in the nutrient medium without the addition of a preparation maintain their normal motility during the entire test period of 120 hours.

Data set [2] relates to Schistosoma mansoni. Briefly: Schistosomicidal activity in infected golden hamsters. Format: in vivo. As to conditions: Hamster. The procedure:
(§1) Mice and golden hamsters are infected subcutaneously with 60 cercaria of Schistosoma mansoni. About 42 days after the infection, they are treated orally with a single dosage of the preparation to be tested. 5 animals are used per preparation and dosage. 10 untreated animals are used as controls. The animals are killed and dissected 2 weeks (hamster) or 3 weeks (mice) after the treatment. Worm pairs in mesenteric veins, portal vein and liver are dissected-out, counted and the condition of the worms (living or dead) are registered. A schistosomicidal activity of a preparation manifests itself in the appearance of dead worms in the vessels of the liver. Dead worms are never found in untreated control animals. The test is evaluated by calculating the percentage of dead worm pairs in the liver of infected, treated animals.

The test system of data set [3] is Schistosoma mansoni. Put plainly: Schistosomicidal activity in infected mice. The class given is in vivo. To be noted: for Schistosomicidal activity in %: Mouse. Here is the method:
as §1

Data set [4] has as its target central benzodiazepine receptors (cerebral cortex). Put plainly: Inhibition of binding of tritiated diazepam at the specific benzodiazepine receptors in the cerebral cortex. The procedure:
The affinity of compounds of formula I to the central benzodiazepine receptors was determined according to the method described in Life Science 20, 2101-2110 (1977) and Science 198, 849-851 (1977). According to this method, the inhibition of the binding of tritiated diazepam at the specific benzodiazepine receptors in the cerebral cortex by the respective test substances is ascertained. The IC50 ("50% inhibiting concentration") is that concentration of the respective test substance which brings about a 50 percent inhibition of the specific binding of the tritiated diazepam at the specific benzodiazepine receptors in the cerebral cortex.

In data set [5] the test system is diazepam effect in the pentetrazole test. Briefly: Antagonism of diazepam in the pentetrazole test. Format: in vivo, mice. As to conditions: for ED50: Mus musculus, po, 0.25 h, mice, diazepam 5 mg/kg i.p. 1 hour before pentetrazole 120 mg/kg i.p., test compound p.o. 15 minutes before pentetrazole. Here is the method: This property was used to evaluate the test described hereinafter which permits the determination of compounds which are capable of antagonizing the central properties of 1,4-benzodiazepines which have tranquillizing activity.
The antagonistic activity of the compounds investigated, i.e. their ability to counteract the activity of the diazepam in the pentetrazole test, is determined by counting the mice which suffer convulsive attacks in this test.
(§2) In the following Table there are presented the results which have been obtained with representative members of the class of compound defined by formula I in the test previously described. The ED50 is the amount of test compound in mg/kg (p.o.) which counteracts in 50% of the animals the diazepam effect in the above test. Moreover, the Table contains the IC50 value defined above for all test compounds listed therein as well as data concerning the acute toxicity of certain of these compounds (LD50 in mg/kg in the case of single oral administration to mice).

Data set [6] is described as follows: Acute toxicity, single oral administration to mice. As to conditions: mouse, in vivo.
From the text: as §2

SMILES strings stand for the structures.

On to `CC1N=C(c2ccccc2Cl)c2cc([N+](=O)[O-])ccc2NC1=O` (single isomer, unassigned; (+)) [Compound S, (+)-5-(o-chlorophenyl)-1,3-dihydro-3-methyl-7-nitro-2H-1,4-benzodiazepin-2-one, reference compound], for which, in data set [1] (Compound S 25 ug/ml alone), the Activity entry is reported as “a (worm pairs motionless within 15 minutes)”. Moreover, the “Schistosomicidal activity in %” value in data set [2] (Compound S 75 mg/kg p.o. alone) and in data set [3] (Compound S 75 mg/kg p.o. alone) was 100% each time.
Regarding `CN1Cc2c(C(=O)OC(C)(C)C)ncn2-c2ccc(F)cc2C1=O` [(a) F H --CH3 O, t-butyl 8-fluoro-5,6-dihydro-5-methyl-6-oxo-4H-imidazo[1,5-a][1,4]benzodiazepine-3-carboxylate], the IC50 (commonly the concentration that inhibits the measured activity by half) in data set [4] was found to be 1.4 nM. It took a dose of 8.4 mg/kg to reach the 50% effect level in data set [5] (ED50).
In the same order, the values of `CN1Cc2c(C(=O)OC(C)(C)C)ncn2-c2cccc(Br)c2C1=O` [(a) H Br --CH3 O, t-butyl 7-bromo-5,6-dihydro-5-methyl-6-oxo-4H-imidazo[1,5-a][1,4]benzodiazepine-3-carboxylate] are 2.3 nM and 0.13 mg/kg.
On the same counts, the results for `CN1Cc2c(C(=O)OC(C)(C)C)ncn2-c2cccc(C#N)c2C1=O` [(a) H CN --CH3 O, t-butyl 7-cyano-5,6-dihydro-5-methyl-6-oxo-4H-imidazo[1,5-a][1,4]benzodiazepine-3-carboxylate] are 10 nM and 1.22 mg/kg.
As for `CN1Cc2c(C(=O)OC(C)(C)C)ncn2-c2cccc(Cl)c2C1=O` [(a) H Cl --CH3 O, t-butyl 7-chloro-5,6-dihydro-5-methyl-6-oxo-4H-imidazo[1,5-a][1,4]benzodiazepine-3-carboxylate], the Activity result in data set [1] (Compound A 25 ug/ml alone) and in data set [1] (Compound A 100 ug/ml alone) was “b” throughout. Besides, the “influence on schistosomicidal activity of compound S” value is given as “not influenced detrimentally” in data set [1] (in vitro test); “not influenced detrimentally” in data set [3] (animal tests (mice and hamsters)). Besides, the “Schistosomicidal activity in %” value in data set [2] (Compound A 225 mg/kg p.o. alone) and in data set [3] (Compound A 300 mg/kg p.o. alone) was 0% throughout. The compound further displayed a concentration for half-maximal inhibition (IC50) in data set [4] of 3 nM. Further, the median effective dose (ED50) (usually the dose at which the effect has come halfway, by size or by number of responders) in data set [5] is 0.2 mg/kg. The LD50 (usually the dose expected to kill half of the subjects tested) in data set [6] was found to be 312 mg/kg.
On to `CN1Cc2c(C(=O)OC(C)(C)C)ncn2-c2ccccc2C1=O` [(a) H H --CH3 O, t-butyl 5,6-dihydro-5-methyl-6-oxo-4H-imidazo[1,5-a][1,4]benzodiazepine-3-carboxylate], for which the IC50 in data set [4] turned out to be 3.3 nM. In addition, in data set [5], the ED50 amounted to 4.7 mg/kg. The compound also showed a 50% lethal dose (LD50) in data set [6] of 625 mg/kg.
Take `CN1Cc2c(C(=O)OC(C)(C)C)ncn2-c2ccccc2C1=S` [(a) H H --CH3 S, t-butyl 5,6-dihydro-5-methyl-6-thioxo-4H-imidazo[1,5-a][1,4]benzodiazepine-3-carboxylate]: the 50% inhibitory concentration (IC50) in data set [4] came to 8.9 nM. In data set [5], the 50% effective dose (ED50) was 7.1 mg/kg.
In the same order, the values of `CN1Cc2c(C(=O)OC(C)(C)C)ncn2-c2cccc(I)c2C1=O` [(a) H I --CH3 O, t-butyl 5,6-dihydro-7-iodo-5-methyl-6-oxo-4H-imidazo[1,5-a][1,4]benzodiazepine-3-carboxylate] are 2.6 nM and 0.14 mg/kg.
Consider `CN1C(=O)CN=C(c2ccccc2)c2cc(Cl)ccc21` [diazepam, reference compound], for which the “experimental animals protected from convulsive attacks in the pentetrazole test” value in data set [5] (diazepam 5 mg/kg i.p., more than 900 mice) was “protects all experimental animals from convulsive attacks”.
